Data as given in US20260103471A1, “CYCLIC UREA THIAZOLYL COMPOUNDS FOR TREATMENT OF HSV” (Assembly Biosciences, Inc., priority 2022, published 2026).
pEC50: −log10 of the molar value. Where two headings read alike, the source gives them in different places.

How the values were obtained:
[1] = test system: HSV-2 G strain; experiment: HSV-2 Antiviral Assay (Vero cells, cell viability); type: cell-based; settings: for pEC50: Vero cells, 5 days
How it was run: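 Antiviral readout is survival of infected Vero cells: after 5 days at 37 °C with 160 TCID50 HSV-2 G strain plus serially diluted compound (8 points, 3-fold, 0.5% DMSO), WST-8 was added for 3 h and absorbance measured at 460/620 nm. Cells seeded at 1.0×10^4 per well.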

[2] = test system: HSV-1; experiment: HSV-1 Antiviral Assay (Vero cells, cell viability); type: cell-based; settings: for pEC50: Vero cells, read-out: HSV-1 EC50
Description: Vero cells were cultured in Dulbecco's Modified Eagle Medium (DMVEM) supplemented with […] and 100 units/mL penicillin and streptomycin. The cells were passaged 2-3 times per week to maintain sub-confluent densities.
Vero cells were seeded into 96-well plates at a density of 2.5×10^3 cells per well and allowed to attach overnight. Following attachment, the media was replaced with 50 μL of infection medium (DMVEM supplemented with 2% fetal bovine serum and 100 units/mL penicillin and streptomycin). A Tecan D300e digital dispenser was then used to add compounds to the culture using an 8-point 3-fold serial dilution format. The DMSO concentration was normalized to 0.5% for all treatments. Following compound addition, 50 μL of infection medium containing 80 TCID50 HSV-1 was added to the cells and incubated at 37° C. for 4 days. After the incubation, the plates were equilibrated to room temperature, the media was removed, and […] a 1:1 dilution of Cell titer glow and phosphate buffered saline was added to the cells. Following a 5-minute incubation, cell viability was quantified by measuring luminance using a Tecan Infinite M1000 Pro plate reader.

[3] = Human alphaherpesvirus 2, Vero, 120 h, 160 TCID50 HSV-2 G strain, cell viability
[4] = Human alphaherpesvirus 1, 96 h, 80 TCID50 HSV-1, 4 days, cell viability
[5] = Human alphaherpesvirus 2, Vero, 120 h
[6] = ratio of EC50 vs Example 87 in WO2001047904
[7] = Human alphaherpesvirus 1, 96 h, 4 days

| SMILES | pEC50 [1, 3] | pEC50 [2, 4] | also measured |
| --- | --- | --- | --- |
| Cc1nc(N2CCCN(c3ccc(-c4ccnn4C)cc3)C2=O)sc1S(N)(=O)=O [Compound 40] | 5.30 to 6.00 | 5.30 to 6.00 |  |
| Cc1nc(N(C)C(=O)N(C)c2ccc(-c3cc(F)ccc3F)cc2)sc1S(N)(=O)=O [Reference Compound A, reference compound] |  |  | pEC50 [1, 5]: 6.03; fold less active than Example 5 in the HSV-2 assay ([1]; ratio of EC50 vs Example 5): 92 fold; fold less active than acyclic amide analog Example 87 in the HSV-2 assay [1, 6]: 54 fold; pEC50 [2, 7]: 6.07; fold less active than Example 5 in the HSV-1 assay ([2]; ratio of EC50 vs Example 5): 44 fold; fold less active than acyclic amide analog Example 87 in the HSV-1 assay [2, 6]: 50 fold |
| Cc1nc(N2CCCN(c3ccc(-c4cc(F)cc5nsnc45)cc3)C2=O)sc1S(N)(=O)=O [Example 259] |  |  | pEC50 [1, 5]: 8.15; fold more active than Example 314 (5-membered ring analog) ([1]; ratio of EC50 vs Example 314, assay not stated, HSV-2 values only): 4 fold; pEC50 [2, 7]: 8.00 |
| CC(=O)N1CC2(C1)CN(c1ccc(-c3cc(F)ccc3F)cc1)C(=O)N(c1nc(C)c(S(N)(=O)=O)s1)C2 [Compound 338] | 6.00 to 7.00 | 6.00 to 7.00 |  |
| Cc1nc(N2CCCN(c3ccc(-c4cc(F)ccc4C4CC4)cc3)C2=O)sc1S(N)(=O)=O [Compound 22] | > 7.00 | > 7.00 |  |
| Cc1nc(N2CCCN(c3ccc(-c4nc5ncccc5s4)cc3)C2=O)sc1S(N)(=O)=O [Compound 89] | 5.30 to 6.00 | 5.30 to 6.00 |  |
| Cc1nc(N2CC3(COC3)CN(c3ccc(-c4cc(F)cc(-c5cnn(C(F)F)c5)c4F)cc3)C2=O)sc1S(C)(=O)=O [Compound 434] | > 7.00 | > 7.00 |  |
| Cc1nc(N2CCCCN(c3ccc(-c4cc(F)ccc4F)cc3)C2=O)sc1S(N)(=O)=O [Compound 101, 2-(3-(2′,5′-Difluoro-[1,1′-biphenyl]-4-yl)-2-oxo-1,3-diazepan-1-yl)-4-methylthiazole-5-sulfonamide] | > 7.00 | > 7.00 |  |
| Cc1nc(N2CC3(CC3)CN(c3ccc(-c4ccnn4C)cc3)C2=O)sc1S(N)(=O)=O [Compound 113, 4-Methyl-2-(7-(4-(1-methyl-1H-pyrazol-5-yl)phenyl)-6-oxo-5,7-diazaspiro[2.5]octan-5-yl)thiazole-5-sulfonamide] | 5.30 to 6.00 | 5.30 to 6.00 |  |
| Cc1nc(N2C[C@H](C)CN(c3ccc(-c4ccccc4F)cc3)C2=O)sc1S(N)(=O)=O [Compound 316] | > 7.00 | > 7.00 |  |
| Cc1nc(N2CCCN(c3ccc(-c4cc(F)ccc4F)cc3)C2=O)sc1S(=O)(=O)NC1CC1 [Compound 117] | > 7.00 | > 7.00 |  |
| O=C1N(c2ccc(-c3cc(F)ccc3F)cc2)CCCN1c1ncc(S(=O)(=O)C2CC2)s1 [Compound 166] | 6.00 to 7.00 | 6.00 to 7.00 |  |
| Cc1nc(N2CCCN(c3ccc(-c4cc(F)cc(-c5cnn(C(F)F)c5)c4F)cc3)C2=O)sc1S(N)(=O)=O [Compound 228, 2-(3-(3′-(1-(difluoromethyl)-1H-pyrazol-4-yl)-2′,5′-difluoro-[1,1′-biphenyl]-4-yl)-2-oxotetrahydropyrimidin-1(2H)-yl)-4-methylthiazole-5-sulfonamide] | > 7.00 | > 7.00 |  |
| Cc1nc(N2CCCN(Cc3cccc(-c4ccccc4)c3)C2=O)sc1S(N)(=O)=O [Compound 173] | > 7.00 | > 7.00 |  |
| Cc1nc(N2CCCN(c3ccc(-c4ccccc4Cl)cc3)C2=O)sc1S(N)(=O)=O [Compound 9] | > 7.00 | > 7.00 |  |
| CNS(=O)(=O)c1sc(N2CCCN(c3ccc(-c4ccccn4)cc3)C2=O)nc1C [Compound 118] | > 7.00 | > 7.00 |  |
| Cc1cc2cccc(-c3ccc(N4CCCN(c5nc(C)c(S(N)(=O)=O)s5)C4=O)cc3)c2s1 [Compound 73] | > 7.00 | > 7.00 |  |
| Cc1nc(N2CCCN(c3ccc(-c4ncccc4F)cc3)C2=O)sc1S(N)(=O)=O [Compound 35] | > 7.00 | > 7.00 |  |
| Cc1nc(N2CCCN(c3ccc(-c4cccc5c4OC(F)(F)O5)cc3)C2=O)sc1S(N)(=O)=O [Compound 80] | > 7.00 | > 7.00 |  |
| Cc1nc(N2CCCN(c3ccc(-c4cc(F)ccc4C(F)F)cc3)C2=O)sc1S(N)(=O)=O [Compound 194] | > 7.00 | > 7.00 |  |
| Cc1nc(N2CCCN(c3ccc(-c4nccs4)cc3)C2=O)sc1S(=O)(=O)NC1CC1 [Compound 127] | > 7.00 | > 7.00 |  |
| Cc1nc(N2CCCN(c3ccc(-c4cccc5cc(C#N)sc45)cc3)C2=O)sc1S(N)(=O)=O [Compound 274] | > 7.00 | > 7.00 |  |
| Cc1nc(N2CCCN(c3ccc(-c4ncc(C(F)(F)F)s4)cc3)C2=O)sc1S(N)(=O)=O [Compound 45] | 5.30 to 6.00 | 5.30 to 6.00 |  |
| Cc1nc(N2CCCN(c3ccc(-c4cc(F)cc5c4ccn5C)cc3)C2=O)sc1S(N)(=O)=O [Compound 251] | > 7.00 | > 7.00 |  |

| SMILES | pEC50 [1, 3] | pEC50 [2, 4] | also measured |
| --- | --- | --- | --- |
| Cc1nc(N2C[C@H](C#N)CN(c3ccc(-c4cc(F)ccc4F)cc3)C2=O)sc1S(N)(=O)=O (single isomer, unassigned) [Compound 376] |  |  | pEC50 ([1]; 160 TCID50 HSV-2 G strain, cell viability): > 7.00; pEC50 ([2]; 80 TCID50 HSV-1, 4 days, cell viability): > 7.00 |
| Cc1nc2cccc(-c3ccc(N4CCCN(c5nc(C)c(S(N)(=O)=O)s5)C4=O)cc3)c2s1 [Compound 68] | > 7.00 | > 7.00 |  |
| Cc1nc(N2CCCN(c3ccc(-c4cccc5ncccc45)cc3)C2=O)sc1S(N)(=O)=O [Compound 84] | > 7.00 | 6.00 to 7.00 |  |
| Cc1nc(N2CCCN(c3ccc(-c4ccccc4F)cc3F)C2=O)sc1S(=O)(=O)NC1CC1 [Compound 131] | 6.00 to 7.00 | 6.00 to 7.00 |  |
| NS(=O)(=O)c1sc(N2CCCN(c3ccc(-c4cc(F)ccc4F)cc3)C2=O)nc1CF [Compound 441, 2-(3-(2′,5′-difluoro-[1,1′-biphenyl]-4-yl)-2-oxotetrahydropyrimidin-1(2H)-yl)-4-(fluoromethyl)thiazole-5-sulfonamide] | > 7.00 | > 7.00 |  |
| Cc1nc(N2CCCN(c3ccc(-c4cccc5cnccc45)cc3)C2=O)sc1S(N)(=O)=O [Compound 85] | > 7.00 | > 7.00 |  |
| Cc1nc(N2CCCN(c3ccc(-c4ccccc4F)cc3)C2=O)sc1S(C)(=O)=O [Compound 164] | > 7.00 | > 7.00 |  |
| Cc1nc(N2CCCN(c3ccc(-c4nsc5ccccc45)cc3)C2=O)sc1S(N)(=O)=O [Compound 310] | > 7.00 | > 7.00 |  |
| Cc1nc(N2CCCN(c3ccc(-c4ncco4)cc3)C2=O)sc1S(N)(=O)=O [Compound 41] | 6.00 to 7.00 | 6.00 to 7.00 |  |
| Cc1nc(N2CCCN(c3ccc(-c4cccc5c4sc(=O)n5C)cc3)C2=O)sc1S(N)(=O)=O [Compound 79] | > 7.00 | > 7.00 |  |
| Cc1nc(N2CCCN(c3ccc(-c4ccc(C#CC(C)(C)O)cc4)cc3)C2=O)sc1S(N)(=O)=O [Compound 28] | 5.30 to 6.00 | 5.30 to 6.00 |  |
| CNS(=O)(=O)c1sc(N2CCCCN(c3ccc(-c4ccccn4)cc3)C2=O)nc1C [Compound 138] | > 7.00 | > 7.00 |  |
| Cc1nc(N2CCCN(c3ccc(-c4cc(Cl)cc5ncsc45)cc3)C2=O)sc1S(N)(=O)=O [Compound 277] | > 7.00 | > 7.00 |  |
| Cc1nc(N2CCCN(c3ccc(-c4cc(F)cc(-c5cnn(C)c5)c4F)cc3)C2=O)sc1S(N)(=O)=O [Compound 210] | > 7.00 | > 7.00 |  |
| Cc1nc(N2CCCN(c3ccc(-c4cc(Br)ccc4F)cc3)C2=O)sc1S(N)(=O)=O [Compound 25] | > 7.00 | > 7.00 |  |
| Cc1nc(N2CCCN(c3ccc(-c4cccc5c4cnn5C)cc3)C2=O)sc1S(N)(=O)=O [Compound 55] | > 7.00 | > 7.00 |  |
| Cc1nc(N2CCCN(c3cc(F)c(-c4ccccn4)cc3F)C2=O)sc1S(N)(=O)=O [Compound 98] | > 7.00 | > 7.00 |  |
| Cc1nc(N2CCCN(c3ccc(-c4cc(F)cc5nonc45)cc3)C2=O)sc1S(N)(=O)=O [Compound 245] | > 7.00 | > 7.00 |  |
| CNc1cccc(-c2ccc(N3CCCN(c4nc(C)c(S(=O)(=O)NC)s4)C3=O)cc2)n1 [Compound 124] | > 7.00 | > 7.00 |  |
| Cc1nc(N2CCCN(c3ccc(-c4ccccc4C(F)F)cc3)C2=O)sc1S(N)(=O)=O [Compound 12] | > 7.00 | > 7.00 |  |
| CNS(=O)(=O)c1sc(N2CCCN(c3ccc(-c4ncccc4F)cc3)C2=O)nc1C [Compound 122] | > 7.00 | > 7.00 |  |
| Cc1nc(N2CC3(CC3)CN(c3ccc(-c4cc(F)ccc4F)cc3)C2=O)sc1[S@](C)(=N)=O (single isomer, unassigned) [Compound 156] | > 7.00 | > 7.00 |  |
| CNS(=O)(=O)c1sc(N2CCCN(c3ccc(-c4ccccc4F)cc3F)C2=O)nc1C [Compound 130] | > 7.00 | > 7.00 |  |
| COCc1ccc(F)cc1-c1ccc(N2CCCN(c3nc(C)c(S(N)(=O)=O)s3)C2=O)cc1 [Compound 209] | > 7.00 | > 7.00 |  |
